Reference: patent publication US9445993B2, “Nanotechnology approach for inhalation therapies” (Rutgers, The State University of New Jersey, priority 2012, dated 2016)

Tests used:
[1] = test system: IPF initiated by the intratracheal instillation of bleomycin; test: Animal model of IPF and inhalation treatment starting day 15 (Example 2): body and lung weight, hydroxyproline, MRI, histology
Method: Healthy 6-8 weeks old SKH1-hr hairless mice of both genders (20-25 g) were obtained from Charles River Laboratories (Wilmington, Mass.). IPF was initiated by the intratracheal instillation of bleomycin at the dose of 1.5 U/kg. Changes in animal body and lung weight, hydroxyproline content in the lung tissue, and lung histology were used as hallmarks of the development of IPF in experimental animals.
Mice were treated separately with three different NLC-based DDS containing PGE2 and siRNA targeted to MMP3, CCL12 and HIF1A mRNA with appropriate controls by inhalation twice a week for three weeks starting 15 days after the bleomycin administration. […] A previously developed instillation unit consisting of a collision nebulizer connected to four-port, nose-only exposure chambers was used for inhalation delivery of NLC-PEG2-siRNA. NLC-based DDS was aerosolized at the flow rate of 2 L/min for ten min. Animal weight was measured daily throughout the study. In vivo imaging was performed twice per week in anesthetized mice during the whole course of the treatment. Optical Imaging (In-Vivo MS FX PRO, IVIS 100) and ultrasound (Vevo 2100 imaging system) was performed to monitor the body distribution of nanoparticles and disease progression, respectively. Animals were treated 6 times (2 times per week) starting from the day 15 after bleomycin instillation.
Expression of genes and proteins involved in the development and compensation of IPF was studied by quantitative RT-PCR (genes), Western blotting and Immunohistochemistry (proteins). In addition, body and organ weights as well as hydroxyproline content in the lungs was monitored. The distribution of osmium-, fluorescent- or tritium-labeled DDS was examined in mouse lungs, heart, liver, spleen, kidneys, and brain using transmission electron and confocal microscopes, optical imaging systems, and a radioactive counter, respectively. Adverse side effects of the treatment were determined by histopathological analysis, apoptosis and necrosis measurement in the healthy organs (heart, liver, spleen, kidneys, and brain).
Changes in animal body and lung weight, hydroxyproline content in the lung tissue and lung histology were used as hallmarks of the development of IPF in experimental animals after the instillation of 1.5 U/kg of bleomycin.

[2] = test system: 84 key genes involved in tissue remodeling; MMP3, CCL12, HIF1A; test: Gene and protein expression in lung tissues (Example 2); format: in vivo, mice; conditions: treatment with PGE2
Method: The profiles of the expression of 84 key genes involved in tissue remodeling during wound repair and development of fibrosis were studied in the lung tissues. […] Overexpression of some proteins was confirmed using immunostaining of lung tissue sections (FIG. 13A). In addition to genes included in the mouse fibrosis array, the expression of VEGF and hypoxia inducible factor 1 alpha (HIF1A) proteins was analyzed by immunohistochemistry (FIG. 13A) and Western blotting (FIG. 13B). Instillation of bleomycin led to the overexpression of HIF1A protein (FIGS. 13A and B).

mice = test: Selection of bleomycin dose (animal death after intratracheal instillation); format: in vivo; conditions: observed 21 days
Method: (§1) Experiments were performed on healthy 6-8 weeks old SKH1-hr hairless mice (20-25 g) obtained from Charles River Laboratories (Wilmington, Mass.). Veterinary care followed the guidelines described in the guide for the care and use of laboratory animals (AAALAC) as well as the requirements established by the animal protocol approved by the Rutgers Institutional Animal Care and Use Committee (IACUC).
(§2) All mice were contained in micro-isolated cages under pathogen-free conditions at room temperature with humidity of 40±15% and light/dark cycle on 12 h per day in the animal maintenance facility. Mice were anesthetized via intraperitoneal instillation with 80 mg/kg ketamine and 10-12 mg/kg xylazine (Butler-Schine Animal Health Inc, Dublin, Ohio). Once anesthetized, the mouse was placed on the tilting rodent work stand (Hallowell EMC, Pittsfield, Mass.) in supine position and restrained in position by an incisor loop. The tongue was then extruded via rotation with a cotton tip applicator. The larynx was visualized using a modified 4 mm ear speculum attached to an operating head of an ophthalmoscope (Wellch Allyn, Skaneateles Falls, N.Y.). The modified speculum, acting in an inverted fashion as a laryngoscope blade, provided dorsal displacement of the tongue and magnification of the laryngeal opening as described.
Bleomycin was administered intratracheally in doses of 0.5, 1.0, 1.5, and 2.0 U/kg. Mice were treated with liposomal PGE2 by inhalation twice a week for three weeks starting with the second day after the bleomycin administration. […] Animal weight was measured daily throughout the study. After the three weeks treatment period, all mice were anesthetized with isoflurane and euthanized. The organs (lungs, heart, liver, kidney, spleen, and brain) were excised and used for further analysis.
In order to select an appropriate dose of bleomycin, four doses (0.5; 1.0; 1.5; 2.0 U/kg) were tested. […] The dose of 2.0 U/kg led to the death of 100% of animals within 21 days (FIG. 1A). The doses of 1.5 and 1.0 U/kg induced death of 50 and 25% of animals, respectively.

[3] = test system: lung fibrosis induced by intratracheal instillation of bleomycin; test: Animal model of IPF and inhalation treatment: body mass and mortality (Example 1); format: in vivo, mice; conditions: three weeks after instillation of 1.5 U/kg bleomycin
Method: as §1
as §2, with “The modified speculum, acting in an inverted fashion as a laryngoscope blade, provided dorsal displacement of the tongue and magnification of the laryngeal opening as described.” left out
Bleomycin was administered intratracheally in doses of 0.5, 1.0, 1.5, and 2.0 U/kg. […] Animal weight was measured daily throughout the study. […]

[4] = test system: hydroxyproline content in the lungs; test: Hydroxyproline assay in lungs (Example 1); format: in vivo, mice; conditions: three weeks after instillation of 1.5 U/kg bleomycin
Method: […] Homogenized lung tissues were hydrolyzed in 12 N HCl at 120° C. for 3 h in pressure-tight vials. After this, 10 μl of samples were allocated to a 96 well plate and dried under vacuum. Oxidation buffer with chloramine T was added to each sample at room temperature for 5 min, and the samples were incubated in dimethylaminobenzaldehyde (DMAB) reagent for 90 min at 60° C. Samples were cooled and the absorbance at 560 nm was measured using an automated microplate plate reader. Six concentrations of hydroxyproline standard dilutions (from 0 to 1 μg/well) were used to plot a hydroxyproline standard curve.

lung tissue = test: Histopathologic analysis of lungs (Example 1); format: in vivo, mice; conditions: 1.5 U/kg bleomycin instilled
Source text: At the end of the experiments, the animals were euthanized, the lungs were extracted and immediately fixed in 10% phosphate-buffered formalin. Samples were subsequently dehydrated and embedded in Paraplast®. Five-micrometer sections were cut and stained with hematoxylin-eosin as previously described and analyzed.

[5] = PGE2 delivered by liposomes or NLC by inhalation, from day 15
[6] = 15 days after instillation of 1.5 U/kg bleomycin

Row | Molecule | signs of IPF and lung tissue injury detected by MRI and histopathology ([1]; PGE2 alone delivered locally into the lungs) | hydroxyproline content in the lungs of treated animals versus healthy control ([1]; PGE2 by inhalation, from day 15) | body weight of experimental animals [1, 5] | lung weight [1, 5] | therapeutic effects of PGE2 delivered by liposomes versus NLC ([1]; inhalation) | expression of MMP3, CCL12 and HIF1A versus control after treatment [2] | animal death (mice; bleomycin 0.5 U/kg intratracheally) | death of animals (mice; bleomycin 1.0 U/kg intratracheally) [%] | death of animals (mice; bleomycin 1.5 U/kg intratracheally) [%] | death of animals within 21 days (mice; bleomycin 2.0 U/kg intratracheally) [%] | body mass of animals, % of its initial value [3] [%] | increase of hydroxyproline concentration in the lungs [4] [times] | lung histology (lung tissue) | body weight of animals, % of its initial value [1, 6] [%] | increase of hydroxyproline concentration in the lungs [1, 6] [fold] | lung weight [1, 6] | lung histology ([1]; bleomycin 1.5 U/kg)
1 | CCCCC[C@H](O)/C=C/[C@H]1[C@H](O)CC(=O)[C@@H]1C/C=C\CCCC(=O)O [PGE2, Prostaglandin E2] | substantially less pronounced | still significantly higher | decreased the body weight of experimental animals induced by bleomycin | had a little effect on the lung weight | comparable | still substantially higher when compared with control |  |  |  |  |  |  |  |  |  |  | 
2 | bleomycin |  |  |  |  |  |  | did not induce animal death | 25 | 50 | 100 | 75 | 2.6 | consolidation of the pulmonary architecture, with early fibrotic thickening of the alveolar walls, ablation of the alveolar space, and edema | 75 | 2.6 | significantly increased | consolidation of the pulmonary architecture, with early fibrotic thickening of the alveolar walls, ablation of the alveolar space, and edema
